Here are results for 3 molecules from patent US12297220B2, “Phenethylamines and cathinones precursors” (Transcend Therapeutics, Inc., priority 2022, dated 2025).

SMILES strings stand for the structures.

The subject of series [1] is fear extinction recall. The following applies: 7.5 mg/kg, 30 minutes prior to extinction training; cited from earlier work.
The test system of series [2] is healthy volunteers. The following applies: self-administration; cited from earlier work.
Series [3] relates to open field test. The following applies: cited from earlier work.
Series [4] deals with mouse model of PTSD. The experiment in a line: Fear extinction recall in a mouse model of PTSD. The series is classed as in vivo. The note with it: 30 mg/kg, IP. The method, then:
FIGS. 1A-1D: Methylone improves fear extinction recall in a mouse model of PTSD. (FIG. 1A) Schematic of experimental design. A single CS—US (tone-shock) pairing on day 1 was followed by 6 CS presentations in a novel context (context B). Methylone or saline vehicle was injected 30 min prior to extinction training on day 2. On day 3, the time spent freezing to the CS was quantified. […] (FIG. 1C) The time freezing before vs. during each of 6 cues on day 3 (to control for locomotor effects) are shown. There was a significant cue×drug interaction (F(5, 130)=2.409, p<0.05). […] N=12 for methylone group (30 mg/kg, IP, orange diamonds) and N=16 for saline control group (black squares). *p<0.05
Effective PTSD treatments facilitate the disassociation between a traumatic memory and the patient's fear response, making cues for the traumatic memory evoke less of a fear response. This is modeled in the mouse fear extinction paradigm which takes place over 3 days. On day 1 (fear conditioning), mice are trained to acquire a “traumatic memory,” namely associating the conditioned stimulus (CS, tone) to the unconditioned stimulus (US, foot shock). On day 2 (extinction training), they are trained to forget the traumatic memory association by presenting the CS 6 times (with no US) in a novel environment. On day 3 (extinction recall), the mice are “asked” if that tone (CS) still elicits a fearful response, as measured by the time spent freezing when the tone is presented. Less time freezing means better extinction recall. Drugs that improve extinction recall reduce freezing time on day 3, and, therefore, show potential as a PTSD treatment.
Using these methods, prodrugs are administered to mice and tested for efficacy in the fear extinction model to evaluate their efficacy to treat PTSD and other memory disorders.

Series [5] concerns PTSD. The note with it: clinical case series of 21 individuals; cited from earlier work.
Series [6] has as its system rat forced swim test. In words: Forced swim test (FST), antidepressant-like activity. The series is classed as in vivo. The method, then: The forced swim test (FST) is a classic model to assess the antidepressant-like activity of compounds that has been in use for over 40 years (Porsolt et al. (1977) Nature 266:730-732; Detke et al. (1995) Psychopharmacology 121:66-72). […] A single dose of 5 mg/kg methylone reduces immobility by approximately 50% compared to vehicle-treated controls, whereas a 15 mg/kg dose reduces immobility by nearly 100%. Accompanying changes in climbing and/or swimming behavior reflect noradrenergic and serotonergic activities of methylone, respectively.
All FST studies are performed and scored by an experimenter blind to treatment group and according to standard protocols. Briefly, rats are placed in a circular plexiglass container filled with water. Water temperature is maintained at 22-25° C. and changed for every animal. Day 1 (Training) consists of a 15 min acclimation trial, and Day 2 (Testing, 24 h later) consists of the 5 min test. A time sampling procedure is employed where animals are observed every 5 seconds for the duration of the test session (60 counts or 5 minutes) and scored for immobility (defined as the failure to struggle), swimming (defined as a circular movement around the tank), or climbing (defined as an upwards escape behavior). Data are expressed as the percent of the testing session (e.g., the number of immobility counts divided by 60). […]

In series [7] the test system is human hepatocytes. In words: Prodrug bioactivation / metabolic stability in hepatocytes. The series is classed as in vitro ADME. The note with it: t=60 minutes. The method, then:
(§1) Bioactivation Potential of Prodrug Candidates: After a prodrug is synthesized, its bioactivation potential to release methylone is assessed under in vitro conditions. As the prodrugs are designed to be enzymatically activated by esterases and amidases/peptidases found in the blood and/or the liver, each prodrug is incubated in human and rat whole blood as well as liver hepatocytes. In these assays, the percentage of released parent methylone and of remaining prodrug is measured at different timepoints for a period of 2 hours. A chemical stability assessment of each prodrug is also performed under various pH conditions to ensure that the methylone released is a result of enzymatic hydrolysis. Prodrugs that show in vitro bioactivation are then administered (IV/PO) to rats, and blood samples are collected to assess the pharmacokinetic profile of each prodrug.
For example, the metabolic stability of prodrug candidates to release methylone could be assessed in vitro according to the following protocol: cryopreserved human and rat hepatocytes are thawed in recovery media and diluted in plating media to a viable cell density of 1×10^6 cells/mL. Viability is determined by trypan blue exclusion. […] All samples, including analytical standards, are analyzed by LC-MS/MS to measure the concentration of methylone released and the concentration of the corresponding prodrug remaining. […]

The nature of series [8]: Chemical stability in phosphate buffer without hepatocytes (negative control). The series is classed as physicochemical. The note with it: phosphate buffer pH 6.8 at 37° C., up to 2 hours. The method, then:
as §1
When compound 50 was incubated with human hepatocytes under the conditions described above, at t=60 minutes, approximately 100% of the prodrug had been converted to methylone with a total recovery of approximately 100%.

On to `CNC(C)Cc1ccc2c(c1)OCO2` (centres unmarked) [MDMA], for which the “reduced freezing compared to saline injected controls (extinction recall)” value in series [1] is reported as 35%. Further, the “systolic and diastolic blood pressure” value in series [2] is “significant increase”.

Regarding `CNC(C)C(=O)c1ccc2c(c1)OCO2` (centres unmarked) [Methylone, methylone], in series [3] (5, 10, 20 mg/kg, SC, rats), the “thigmotaxis (time spent hugging the perimeter of the open field)” value is given as “reduce thigmotaxis”. In series [3] (rat, in vivo), the “locomotor activity in the OFT” value is given as “increases locomotor activity” and the “time spent in the center vs the periphery in the OFT” value is “reduces time spent in the center vs the periphery”. The fear extinction recall in series [4] is on record as “significantly improves fear extinction recall”. Also, in series [4] (30 min prior to extinction training, p<0.05), the “Freezing time during the first cue on day 3 (extinction recall) compared to saline” value was “significantly reduced”. Besides, the “locomotor changes on day 3” value in series [4] (p>0.05) is given as “No locomotor changes were observed”. For the same molecule, in series [2], the heart rate entry was “increase in heart rate”; the “systolic and diastolic blood pressure” value is reported as “significant increase”. Moreover, in series [5], the “patients with improved symptoms of PTSD” value was 81%. Also, the “antidepressant-like effect in the rat forced swim test” value in series [6] is given as “robust, dose-dependent antidepressant-like effect”.

Take `CC(OC(=O)C(C)C)OC(=O)N(C)C(C)C(=O)c1ccc2c(c1)OCO2` (centres unmarked) [compound 50, 1-(((1-(benzo[d][1,3]dioxol-5-yl)-1-oxopropan-2-yl)(methyl)carbamoyl)oxy)ethyl isobutyrate]: the “prodrug converted to methylone” value in series [7] is “approximately 100%”. Moreover, the “release of parent methylone in absence of hepatocytes” value in series [8] is “no parent methylone was released”.
